Laboratory results published in patent US9770026B2, “Substituted pyrimidine compound and uses thereof” (Shenyang Sinochem Agrochemicals R&D Co., Ltd., priority 2012, dated 2017).

Key:
corn rust = test: protectant activity in vivo against corn rust; conditions: for control effect against corn rust (%): protectant activity
armyworm = test: bioactivity test against armyworm, airbrush spray; assay type: in vivo
Description: (§1) Compounds were dissolved in mixed solvent (acetone:methanol=1:1), and diluted to required concentration with water containing 0.1% of tween 80.
(§2) Diamond back moth, armyworm, peach aphid and carmine spider mite were used as targets and the method of spraying by airbrush was used for determination of insecticidal biassays.
The method of spraying by airbrush: The corn leaves were made into plates of 2 cm diameter by use of punch. A test solution (0.5 ml) was sprayed by airbrush at the pressure of 0.7 kg/cm^2 to both sides of every plate. 10 Second instar larvae were put into the petri-dishes after the leaf disc air-dried and 3 replicates were set for each treatment. Then the insects were maintained in observation room (25 °C, 60˜70% R.H.). Scores were conducted and mortalities were calculated after 72 h.

carmine spider mite = test: bioactivity test against carmine spider mite, airbrush spray; assay type: in vivo; conditions: for control against carmine spider mite: mortality after 72 hrs
Description: as §1, §2
The method: Broadbean shoots with two true leaves in pot were taken, the healthy adults of carmine spider mite were inoculated to the leaves. The adults were counted and then sprayed with airbrush at the pressure of 0.7 kg/cm^2 and at dose of 0.5 ml. 3 replicates were set for each treatment. And then they were maintained in standard observation room. Scores were conducted and mortalities were calculated after 72 hrs.

[1] = test system: Green peach aphids (Myzus Persicae Sulzer); test: bioactivity test against green peach aphid, airbrush foliar spray; assay type: in vivo; conditions: death rate after 48 hrs
Description: as §1, §2
Method: Filter papers were put in culture dishes (Diameter=6 cm), and water was dripped on filter papers for preserving moisture. Green peach aphids (Myzus Persicae Sulzer) were maintained on cabbage. Leaves (Diameter=3 cm) of approximately 15-30 aphids were put in the culture dishes. Bioactivity tests were used the method of Airbrush Foliar Spray, pressure=10 psi (0.7 kg/cm2), spray volume=0.5 mL. The studies were conducted at […] 25±1 C in incubator cabinets with 60±5% RH. Survey the survival aphids after 48 hrs and calculate the death rates.

wheat powdery mildew = test: protectant activity in vivo against wheat powdery mildew; conditions: for control effect against wheat powdery mildew (%): protectant activity
cucumber downy mildew = test: protectant activity in vivo against cucumber downy mildew

CCc1c(Cl)c(NCCc2ccc(Oc3ccc(C(F)(F)F)cc3)cc2)nc[n+]1CC(=O)c1ccccc1.[Br-] [CK5, reference compound]
0%: Insecticidal activity against armyworm (%) (armyworm; 10 mg/L)
100%: Insecticidal activity against armyworm (%) (armyworm; 600 mg/L)
98%: control effect against corn rust (%) (corn rust; 100 mg/L)
40%: control effect against corn rust (%) (corn rust; 25 mg/L)
56%: Insecticidal activity against armyworm (%) (armyworm; 100 mg/L)
95%: control effect against corn rust (%) (corn rust; 400 mg/L)
30%: control effect against corn rust (%) (corn rust; 6.25 mg/L)

CCc1ncnc(NCc2ccc(Oc3ncc(Cl)cc3Cl)cc2)c1Cl [CK64, reference compound]
56%: pest or weed control at 600 µg/mL (carmine spider mite; Tetranychus cinnabarinus, 72 h, 600 mg/L, contrastive test, read-out: Insecticidal activity against carmine spider mite (% ))
0%: pest or weed control at 600 µg/mL (armyworm; 72 h, 600 mg/L, read-out: Insecticidal activity against armyworm (%))

CCc1ncnc(NCCc2ccc(Oc3ncc(C(F)(F)F)cc3Cl)c(Cl)c2)c1Cl [Compound I-1472]
100%: control (test results against green peach aphid) ([1]; 10 ppm) | control (test results against green peach aphid) ([1]; 100 ppm) | control (test results against green peach aphid) ([1]; 600 ppm) | protectant activity against corn rust in vivo (corn rust; 400 ppm) | control (test results against armyworm) (armyworm; 600 ppm, mortality after 72 h) | control against carmine spider mite (carmine spider mite; 600 ppm) | protectant activity against wheat powdery mildew in vivo (wheat powdery mildew; 100 ppm) | protectant activity against wheat powdery mildew in vivo (wheat powdery mildew; 400 ppm)

FC(F)(F)c1ccc(Oc2ccc(CCNc3ncnc(C(F)(F)F)c3Cl)cc2)nc1 [Compound I-2748]
100%: pest or weed control at 600 ppm ([1]; Myzus persicae, foliar, 48 h, 600 ppm) | pest or weed control at 50 ppm (cucumber downy mildew; Cucumis sativus, 168 h, read-out: protectant activity against cucumber downy mildew in vivo, 50 ppm) | pest or weed control at 100 ppm (cucumber downy mildew; Cucumis sativus, 168 h, read-out: protectant activity against cucumber downy mildew in vivo, 100 ppm) | pest or weed control at 400 ppm (cucumber downy mildew; Cucumis sativus, 168 h, read-out: protectant activity against cucumber downy mildew in vivo, 400 ppm)
80 to 99%: pest or weed control at 400 ppm (corn rust; Zea mays, 168 h, read-out: protectant activity against corn rust in vivo, 400 ppm) | pest or weed control at 600 ppm (armyworm; 72 h, 600 ppm, mortality after 72 h) | pest or weed control at 400 ppm (wheat powdery mildew; Triticum aestivum, 168 h, read-out: protectant activity against wheat powdery mildew in vivo, 400 ppm)

Cc1ncnc(NCCc2ccc(Oc3ccc(Cl)cc3Cl)cc2)c1Cl [II-21]
100%: control (test results against green peach aphid) ([1]; 600 ppm) | protectant activity against cucumber downy mildew in vivo (cucumber downy mildew; 50 ppm) | protectant activity against cucumber downy mildew in vivo (cucumber downy mildew; 100 ppm) | protectant activity against cucumber downy mildew in vivo (cucumber downy mildew; 400 ppm) | protectant activity against corn rust in vivo (corn rust; 100 ppm) | protectant activity against corn rust in vivo (corn rust; 400 ppm) | control (test results against armyworm) (armyworm; 600 ppm, mortality after 72 h) | control against carmine spider mite (carmine spider mite; 100 ppm) | control against carmine spider mite (carmine spider mite; 600 ppm)

CCc1ncnc(NCCc2ccc(Oc3ccc(C(F)(F)F)cc3Cl)cc2)c1Cl [II-432]
76%: Insecticidal activity against carmine spider mite (% ) (carmine spider mite; 10 mg/L, contrastive test)
50%: control effect against wheat powdery mildew (%) (wheat powdery mildew; 0.4 mg/L)
100%: control (test results against green peach aphid) ([1]; 100 ppm) | control (test results against green peach aphid) ([1]; 600 ppm) | protectant activity against cucumber downy mildew in vivo (cucumber downy mildew; 400 ppm) | control effect against corn rust (%) (corn rust; 6.25 mg/L) | control effect against corn rust (%) (corn rust; 25 mg/L) | control effect against corn rust (%) (corn rust; 100 mg/L) | control effect against corn rust (%) (corn rust; 400 mg/L) | protectant activity against corn rust in vivo (corn rust; 6.25 ppm) | protectant activity against corn rust in vivo (corn rust; 25 ppm) | protectant activity against corn rust in vivo (corn rust; 100 ppm) | protectant activity against corn rust in vivo (corn rust; 400 ppm) | Insecticidal activity against carmine spider mite (% ) (carmine spider mite; 100 mg/L, contrastive test) | Insecticidal activity against carmine spider mite (% ) (carmine spider mite; 600 mg/L, contrastive test) | control against carmine spider mite (carmine spider mite; 100 ppm) | control against carmine spider mite (carmine spider mite; 600 ppm) | control effect against wheat powdery mildew (%) (wheat powdery mildew; 6.25 mg/L) | control effect against wheat powdery mildew (%) (wheat powdery mildew; 25 mg/L) | control effect against wheat powdery mildew (%) (wheat powdery mildew; 100 mg/L) | control effect against wheat powdery mildew (%) (wheat powdery mildew; 400 mg/L) | protectant activity against wheat powdery mildew in vivo (wheat powdery mildew; 6.25 ppm) | protectant activity against wheat powdery mildew in vivo (wheat powdery mildew; 25 ppm) | protectant activity against wheat powdery mildew in vivo (wheat powdery mildew; 100 ppm) | protectant activity against wheat powdery mildew in vivo (wheat powdery mildew; 400 ppm)
75%: control effect against corn rust (%) (corn rust; 1.6 mg/L)
15%: control effect against corn rust (%) (corn rust; 0.4 mg/L)
80%: control effect against wheat powdery mildew (%) (wheat powdery mildew; 1.6 mg/L)

Cc1ncnc(NCCc2ccc(Oc3cccc(F)c3)c(Cl)c2)c1Cl [II-559]
100%: control (test results against armyworm) (armyworm; 600 ppm, mortality after 72 h)
